# Laboratory results published in patent US20200017495A1, “NOVEL HETEROCYCLIC COMPOUNDS AND THEIR USE IN PREVENTING OR TREATING BACTERIAL INFECTIONS” (priority 2017, published 2020).
# Read-outs that look alike come from different tables or passages of the source.
# Columns and labels:
# Assay in all cases: MIC of compounds alone and combined with antibacterials, broth microdilution (CLSI)
# Type in all cases: cell-based
# [1] = test system: Klebsiella oxytoca (KOX) isolates; details: Klebsiella oxytoca
# How it was run: (§1)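 First, log-phase suspensions are brought to 5.10^5 CFU/mL final in ca-MHB; plates then incubate 16-20 h at 35° C in air. Growth is judged visually, giving the compound MIC alone and the antibacterial MIC at each compound concentration.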
# [2] = test system: Providencia rettgeri (PRE) isolates; details: Providencia rettgeri
# How it was run: as §1
# [3] = test system: Serratia marcescens (SMA) isolates; details: Serratia marcescens
# How it was run: as §1
# [4] = test system: Escherichia coli (ECO) isolates; details: Escherichia coli
# How it was run: as §1
# [5] = test system: Enterobacter cloacae (ECL) isolates; details: Enterobacter cloacae
# How it was run: as §1
smiles,measurement,setting,value
"C=CC1=C(C(=O)O)N2C(=O)[C@@H](NC(=O)/C(=N\O)c3csc(N)n3)[C@H]2SC1 [CDR, Cefdinir]",MIC,[1],> 256 µg/mL
same,MIC,"[2]; strain PRE UFR99, genotype OXA-1, OXA-181",> 256 µg/mL
same,MIC,"[2]; strain PRE UFR236, genotype TEM-1, OXA-48",> 256 µg/mL
same,MIC,[3],> 256 µg/mL
same,MIC,"[3]; strain SMA UFR134, genotype TEM-1, BES-1, read-out: MIC",256 µg/mL
same,MIC,"[3]; strain SMA UFR137, genotype SME-1, read-out: MIC",4 µg/mL
same,MIC,"[3]; strain SMA UFR138, genotype SME-1, read-out: MIC",8 µg/mL
same,MIC,"[3]; strain SMA UFR139, genotype SME-2, read-out: MIC",64 µg/mL
same,MIC,"[3]; strain SMA UFR239, genotype ESAC, read-out: MIC",128 µg/mL
same,MIC,"[4]; strain ECO 4133, genotype TEM-30, OXA-1, read-out: MIC",0.5 µg/mL
same,MIC,"[4]; strain ECO 5302, genotype TEM-1, OXA-1, read-out: MIC",1 µg/mL
same,MIC,"[4]; strain ECO 131119, genotype TEM-1, OXA-48, read-out: MIC",256 µg/mL
same,MIC,"[4]; strain ECO 180070, genotype TEM-1, CTX-M-15",> 256 µg/mL
same,MIC,"[4]; strain ECO 190314, genotype CTX-M-1",> 256 µg/mL
same,MIC,"[4]; strain ECO 190317, genotype TEM-1, SHV-12, CTX-M-15, OXA-1",> 256 µg/mL
same,MIC,"[4]; strain ECO 190457, genotype CTX-M-15, OXA-1",> 256 µg/mL
same,MIC,"[4]; strain ECO 190549, genotype CTX-M-1, read-out: MIC",256 µg/mL
same,MIC,"[4]; strain ECO 200159, genotype TEM-1, CTX-M-14, read-out: MIC",256 µg/mL
same,MIC,"[4]; strain ECO 200259, genotype CTX-M-14, read-out: MIC",256 µg/mL
same,MIC,"[4]; strain ECO 200344, genotype CTX-M-1",> 256 µg/mL
same,MIC,"[4]; strain ECO 260096, genotype CTX-M-132",> 256 µg/mL
same,MIC,"[4]; strain ECO 260304, genotype CTX-M-15, read-out: MIC",256 µg/mL
same,MIC,"[4]; strain ECO 260508, genotype TEM-1, CTX-M-15, OXA-1",> 256 µg/mL
same,MIC,"[4]; strain ECO RGN238, genotype OXA-1, read-out: MIC",0.5 µg/mL
same,MIC,"[4]; strain ECO UFR15, genotype TEM-1, OXA-48",> 256 µg/mL
same,MIC,"[4]; strain ECO UFR16, genotype TEM-1, CTX-M-15, OXA-1, OXA-48",> 256 µg/mL
same,MIC,"[4]; strain ECO UFR17, genotype TEM-1, CTX-M-15, CMY-2, OXA-1, OXA-181",> 256 µg/mL
same,MIC,"[4]; strain ECO UFR18, genotype CTX-M-15, OXA-204",> 256 µg/mL
same,MIC,"[4]; strain ECO UFR19, genotype CTX-M-15, CMY-2, OXA-1, OXA-204",> 256 µg/mL
same,MIC,"[4]; strain ECO UFR20, genotype SHV-1, CTX-M-15, OXA-1, OXA-232",> 256 µg/mL
same,MIC,"[4]; strain ECO UFR61O, genotype TEM-1, KPC-2",> 256 µg/mL
same,MIC,"[4]; strain ECO UFR62, genotype TEM-1, CTX-M-9, KPC-2",> 256 µg/mL
same,MIC,"[4]; strain ECO UFR74, genotype SHV-1, DHA-1",> 256 µg/mL
same,MIC,"[4]; strain ECO UFR86, genotype ompC-, ompF-, read-out: MIC",2 µg/mL
same,MIC,"[4]; strain ECO UFR174, genotype TEM-1, KPC-2, OXA-1",> 256 µg/mL
same,MIC,"[4]; strain ECO UFR175, genotype TEM-1, KPC-2, OXA-9",> 256 µg/mL
same,MIC,"[4]; strain ECO UFR176, genotype KPC-3, OXA-9*",> 256 µg/mL
same,MIC,"[4]; strain ECO UFR184, genotype CTX-M-15, CMY-4, OXA-1, OXA-204",> 256 µg/mL
same,MIC,"[4]; strain ECO UFR185, genotype OXA-48",> 256 µg/mL
same,MIC,"[4]; strain ECO UFR186, genotype TEM-1, CTX-M-14, OXA-48",> 256 µg/mL
same,MIC,"[4]; strain ECO UFR187, genotype CTX-M-15, OXA-48",> 256 µg/mL
same,MIC,"[4]; strain ECO UFR189, genotype TEM-1, CTX-M-15, OXA-48",> 256 µg/mL
same,MIC,"[4]; strain ECO UFR190, genotype CTX-M-24, OXA-48",> 256 µg/mL
same,MIC,"[4]; strain ECO UFR191, genotype TEM-1, CTX-M-24, OXA-48",> 256 µg/mL
same,MIC,"[4]; strain ECO UFR207, genotype CTX-M-15",> 256 µg/mL
same,MIC,"[4]; strain ECO UFR208, genotype SHV-12",> 256 µg/mL
same,MIC,"[4]; strain ECO UFR209, genotype TEM-1, CTX-M-15",> 256 µg/mL
same,MIC,"[4]; strain ECO UFR210, genotype SHV-12",> 256 µg/mL
same,MIC,"[4]; strain ECO UFR211, genotype TEM-24, read-out: MIC",32 µg/mL
same,MIC,"[4]; strain ECO UFR212, genotype CMY-2",> 256 µg/mL
same,MIC,"[4]; strain ECO UFR218, genotype TEM-1, SHV-1, CTX-M-15",> 256 µg/mL
same,MIC,"[5]; strain ECL 2185D, genotype OXA-163",> 256 µg/mL
same,MIC,"[5]; strain ECL 190310, genotype AmpC",> 256 µg/mL
same,MIC,"[5]; strain ECL 190408, genotype TEM-1, CTX-M-15, OXA-1",> 256 µg/mL
same,MIC,"[5]; strain ECL 200138, genotype AmpC",> 256 µg/mL
same,MIC,"[5]; strain ECL 200322, genotype TEM-1, CTX-M-15, OXA-1",> 256 µg/mL
same,MIC,"[5]; strain ECL 260033, genotype AmpC",> 256 µg/mL
same,MIC,"[5]; strain ECL 260253, genotype TEM-1, KPC-3",> 256 µg/mL
same,MIC,"[5]; strain ECL 260323, genotype AmpC, read-out: MIC",256 µg/mL
same,MIC,"[5]; strain ECL 260508, genotype TEM-1, CTX-M-15",> 256 µg/mL
same,MIC,"[5]; strain ECL NEM146383, genotype AmpC",> 256 µg/mL
same,MIC,"[5]; strain ECL P99, genotype AmpC",> 256 µg/mL
same,MIC,"[5]; strain ECL UFR12, genotype CTX-M-9, OXA-48",> 256 µg/mL
same,MIC,"[5]; strain ECL UFR13, genotype TEM-1, SHV-12, CTX-M-9, OXA-48",> 256 µg/mL
same,MIC,"[5]; strain ECL UFR14, genotype TEM-1, SHV-12, CTX-M-15, DHA-1, OXA-1, OXA-48",> 256 µg/mL
same,MIC,"[5]; strain ECL UFR60, genotype TEM-1, CTX-M-15, KPC-2",> 256 µg/mL
same,MIC,"[5]; strain ECL UFR70, genotype TEM-1, CTX-M-15, CMY-2, OXA-1, Porin loss",> 256 µg/mL
same,MIC,"[5]; strain ECL UFR84, genotype TEM-1, AmpC, OXA-1",> 256 µg/mL
same,MIC,"[5]; strain ECL UFR85, genotype TEM-1, CTX-M-15, AmpC",> 256 µg/mL
same,MIC,"[5]; strain ECL UFR194, genotype OXA-48",> 256 µg/mL
same,MIC,"[5]; strain ECL UFR195, genotype TEM-1, CTX-M-15, OXA-1, OXA-48",> 256 µg/mL
same,MIC,"[5]; strain ECL UFR196, genotype TEM-1, CTX-M-15, OXA-1, OXA-48",> 256 µg/mL
same,MIC,"[5]; strain ECL UFR197, genotype TEM-1, CTX-M-15, OXA-1, OXA-48",> 256 µg/mL
same,MIC,"[5]; strain ECL UFR198, genotype TEM-1, SHV-12, CTX-M-15, DHA-1, OXA-1, OXA-48",> 256 µg/mL
same,MIC,"[5]; strain ECL UFR200, genotype TEM-1, SHV-12, KPC-2",> 256 µg/mL
